Assays:
[1] = target: D(2) dopamine receptor (Homo sapiens) (UniProt P14416); conditions: Compound concentration 10.0 uM
[2] = target: Glutamate receptor ionotropic, kainate (Rattus norvegicus) (UniProt P22756+Q01812+P42260+P42264+Q63273); assay: Inhibition of Glutamate, Kainate at 10 µM in the Eurofins-Panlabs radioligand binding assay (Eurofins_assay_232700); conditions: Compound concentration 10.0 uM
[3] = organism: Rattus norvegicus; assay: Inhibition of Imidazoline I2, Central at 10 µM in the Eurofins-Panlabs radioligand binding assay (Eurofins_assay_241000); design: ligand concentration 2 nM; conditions: Compound concentration 10.0 uM
[4] = target: Neuropeptide Y receptor type 1 (Homo sapiens) (UniProt P25929); assay: Inhibition of Neuropeptide Y Y1 at 10 µM in the Eurofins-Panlabs radioligand binding assay (Eurofins_assay_257010); conditions: Compound concentration 10.0 uM
Sequence of Neuropeptide Y receptor type 1 (Homo sapiens) (P25929 whole entry): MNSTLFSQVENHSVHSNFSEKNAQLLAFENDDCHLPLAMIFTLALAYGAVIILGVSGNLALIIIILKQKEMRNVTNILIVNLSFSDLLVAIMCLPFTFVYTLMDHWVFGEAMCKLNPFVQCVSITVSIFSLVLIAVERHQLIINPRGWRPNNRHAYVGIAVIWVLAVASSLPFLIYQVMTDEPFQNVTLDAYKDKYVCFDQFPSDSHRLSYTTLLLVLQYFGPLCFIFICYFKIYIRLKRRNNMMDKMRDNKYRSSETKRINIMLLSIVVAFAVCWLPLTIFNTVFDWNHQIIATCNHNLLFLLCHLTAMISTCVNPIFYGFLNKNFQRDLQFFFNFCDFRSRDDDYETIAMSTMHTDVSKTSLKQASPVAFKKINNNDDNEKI

[5] = target: Neuropeptide Y receptor type 2 (Homo sapiens) (UniProt P49146); assay: Inhibition of Neuropeptide Y Y2 at 10 µM in the Eurofins-Panlabs radioligand binding assay (Eurofins_assay_257110); conditions: Compound concentration 10.0 uM
Sequence of Neuropeptide Y receptor type 2 (Homo sapiens) (P49146 whole entry): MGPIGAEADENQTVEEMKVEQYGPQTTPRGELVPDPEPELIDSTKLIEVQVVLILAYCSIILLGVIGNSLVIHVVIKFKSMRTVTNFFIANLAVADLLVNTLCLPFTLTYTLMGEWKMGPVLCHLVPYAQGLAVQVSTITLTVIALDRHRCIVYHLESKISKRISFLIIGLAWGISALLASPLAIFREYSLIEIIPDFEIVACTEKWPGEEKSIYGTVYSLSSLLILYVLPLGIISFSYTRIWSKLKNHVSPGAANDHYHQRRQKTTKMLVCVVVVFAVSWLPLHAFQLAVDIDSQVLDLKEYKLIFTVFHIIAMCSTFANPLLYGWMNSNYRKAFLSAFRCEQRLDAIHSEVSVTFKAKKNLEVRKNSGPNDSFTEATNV

[6] = target: Platelet-activating factor receptor (Homo sapiens) (UniProt P25105); assay: Inhibition of Platelet Activating Factor (PAF) at 10 µM in the Eurofins-Panlabs radioligand binding assay (Eurofins_assay_265010); conditions: Compound concentration 10.0 uM
[7] = tested on: Bacteria; assay: Beta-Lactamase Eurofins-Panlabs enzyme assay; design: substrate with concentration; conditions: Compound concentration 10.0 uM
[8] = target: CYP2C19 (Homo sapiens, UniProt P33261); assay: CYP450, 2C19 Eurofins-Panlabs enzyme assay; conditions: compound concentration 10 uM
[9] = target: CYP2D6 (Homo sapiens, UniProt P10635); assay: CYP450, 2D6 Eurofins-Panlabs enzyme assay; conditions: compound concentration 10 uM
[10] = target: 3-hydroxy-3-methylglutaryl-coenzyme A reductase (Homo sapiens) (UniProt P04035); assay: Inhibition of HMG-CoA Reductase at compound concentration of 10.0 uM in the Eurofins-Panlabs enzyme assay (Eurofins_assay_124010); design: substrate with concentration; conditions: Compound concentration 10.0 uM
[11] = target: Neutrophil elastase (Homo sapiens) (UniProt P08246); assay: Peptidase, ELA2 (Neutrophil Elastase 2) Eurofins-Panlabs enzyme assay; conditions: Compound concentration 30.0 uM
Sequence of Neutrophil elastase (Homo sapiens) (P08246 whole entry): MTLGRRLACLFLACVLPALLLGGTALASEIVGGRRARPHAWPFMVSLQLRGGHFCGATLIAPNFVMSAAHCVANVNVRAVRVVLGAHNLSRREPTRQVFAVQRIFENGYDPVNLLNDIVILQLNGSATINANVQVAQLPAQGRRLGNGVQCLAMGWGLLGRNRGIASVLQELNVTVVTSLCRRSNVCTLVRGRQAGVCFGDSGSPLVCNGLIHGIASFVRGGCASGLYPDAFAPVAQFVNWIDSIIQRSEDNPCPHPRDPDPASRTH

[12] = target: Epidermal growth factor receptor (Homo sapiens) (UniProt P00533); assay: Inhibition of Protein Tyrosine Kinase, EGF Receptor at 10 µM in the Eurofins-Panlabs enzyme assay (Eurofins_assay_170020); design: substrate with concentration; conditions: Compound concentration […]
[13] = target: Receptor tyrosine-protein kinase erbB-2 (Homo sapiens) (UniProt P04626); assay: Inhibition of Protein Tyrosine Kinase, ERBB2 (HER2) at 10 µM in the Eurofins-Panlabs enzyme assay (Eurofins_assay_174020); design: substrate with concentration; conditions: Compound concentration 10.0 uM
[14] = target: Tyrosine-protein kinase Fyn (Homo sapiens) (UniProt P06241); assay: Inhibition of Protein Tyrosine Kinase, Fyn at 10 µM in the Eurofins-Panlabs enzyme assay (Eurofins_assay_172020); design: substrate with concentration; conditions: Compound concentration 10.0 uM
Sequence of Tyrosine-protein kinase Fyn (Homo sapiens) (P06241 2-537 limits assumed): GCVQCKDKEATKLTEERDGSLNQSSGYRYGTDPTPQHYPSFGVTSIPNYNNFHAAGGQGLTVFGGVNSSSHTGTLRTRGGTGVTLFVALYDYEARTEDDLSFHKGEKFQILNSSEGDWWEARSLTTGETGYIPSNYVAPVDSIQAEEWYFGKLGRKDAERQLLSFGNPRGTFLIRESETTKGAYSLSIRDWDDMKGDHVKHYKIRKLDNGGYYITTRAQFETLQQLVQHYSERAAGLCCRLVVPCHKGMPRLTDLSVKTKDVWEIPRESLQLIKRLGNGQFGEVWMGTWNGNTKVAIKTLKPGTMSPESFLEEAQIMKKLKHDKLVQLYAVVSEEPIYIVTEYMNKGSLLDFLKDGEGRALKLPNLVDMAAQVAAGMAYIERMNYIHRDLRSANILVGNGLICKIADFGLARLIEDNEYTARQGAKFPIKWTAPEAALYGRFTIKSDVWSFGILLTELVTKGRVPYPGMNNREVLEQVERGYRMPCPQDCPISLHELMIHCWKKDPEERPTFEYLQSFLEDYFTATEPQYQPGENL

[15] = target: Tyrosine-protein kinase Lck (Homo sapiens) (UniProt P06239); assay: Inhibition of Protein Tyrosine Kinase, LCK at 10 µM in the Eurofins-Panlabs enzyme assay (Eurofins_assay_176020); conditions: Compound concentration 10.0 uM
Sequence of Tyrosine-protein kinase Lck (Homo sapiens) (P06239 2-509 limits assumed): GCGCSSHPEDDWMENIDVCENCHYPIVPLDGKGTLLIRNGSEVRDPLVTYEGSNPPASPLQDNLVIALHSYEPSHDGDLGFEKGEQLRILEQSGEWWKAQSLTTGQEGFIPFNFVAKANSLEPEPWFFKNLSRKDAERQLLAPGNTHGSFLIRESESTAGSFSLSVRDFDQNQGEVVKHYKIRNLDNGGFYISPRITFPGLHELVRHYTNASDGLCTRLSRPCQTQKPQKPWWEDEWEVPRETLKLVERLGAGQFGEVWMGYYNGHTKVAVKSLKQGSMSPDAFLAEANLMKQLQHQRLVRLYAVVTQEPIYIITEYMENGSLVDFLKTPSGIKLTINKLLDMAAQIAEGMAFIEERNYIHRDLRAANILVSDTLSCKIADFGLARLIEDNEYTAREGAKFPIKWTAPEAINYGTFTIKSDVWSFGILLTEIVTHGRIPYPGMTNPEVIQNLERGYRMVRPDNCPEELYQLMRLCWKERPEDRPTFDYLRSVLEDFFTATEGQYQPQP

[16] = target: Thromboxane-A synthase (Homo sapiens) (UniProt P24557); assay: Inhibition of Thromboxane Synthase at compound concentration of 10.0 uM in the Eurofins-Panlabs enzyme assay (Eurofins_assay_194020); design: substrate with concentration; conditions: Compound concentration 10.0 uM
[17] = target: C-C chemokine receptor type 2 (Homo sapiens) (UniProt P41597); assay: Inhibition of Chemokine CCR2B at 10 µM in the Eurofins-Panlabs radioligand binding assay (Eurofins_assay_217550); conditions: Compound concentration 10.0 uM
[18] = target: C-C chemokine receptor type 5 (Homo sapiens) (UniProt P51681); assay: Inhibition of Chemokine CCR5 at 10 µM in the Eurofins-Panlabs radioligand binding assay (Eurofins_assay_217720); conditions: Compound concentration 10.0 uM
Sequence of C-C chemokine receptor type 5 (Homo sapiens) (P51681 whole entry, looked up): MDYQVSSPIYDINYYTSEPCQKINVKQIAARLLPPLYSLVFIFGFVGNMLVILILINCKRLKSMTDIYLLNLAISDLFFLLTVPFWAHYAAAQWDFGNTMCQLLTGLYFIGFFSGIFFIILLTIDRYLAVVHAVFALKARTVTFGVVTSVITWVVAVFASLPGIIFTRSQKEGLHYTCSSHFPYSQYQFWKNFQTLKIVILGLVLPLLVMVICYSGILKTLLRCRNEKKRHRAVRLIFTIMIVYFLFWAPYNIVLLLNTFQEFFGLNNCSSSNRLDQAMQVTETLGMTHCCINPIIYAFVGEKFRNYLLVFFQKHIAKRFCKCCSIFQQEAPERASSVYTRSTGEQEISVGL

[19] = target: 5-hydroxytryptamine receptor 4 (Homo sapiens) (UniProt Q13639); assay: Inhibition of Serotonin (5-Hydroxytryptamine) 5-HT4 at 10 µM in the Eurofins-Panlabs radioligand binding assay (Eurofins_assay_272000); conditions: Cavia porcellus; Compound concentration 10.0 uM
Sequence of 5-hydroxytryptamine receptor 4 (Homo sapiens) (Q13639 whole entry): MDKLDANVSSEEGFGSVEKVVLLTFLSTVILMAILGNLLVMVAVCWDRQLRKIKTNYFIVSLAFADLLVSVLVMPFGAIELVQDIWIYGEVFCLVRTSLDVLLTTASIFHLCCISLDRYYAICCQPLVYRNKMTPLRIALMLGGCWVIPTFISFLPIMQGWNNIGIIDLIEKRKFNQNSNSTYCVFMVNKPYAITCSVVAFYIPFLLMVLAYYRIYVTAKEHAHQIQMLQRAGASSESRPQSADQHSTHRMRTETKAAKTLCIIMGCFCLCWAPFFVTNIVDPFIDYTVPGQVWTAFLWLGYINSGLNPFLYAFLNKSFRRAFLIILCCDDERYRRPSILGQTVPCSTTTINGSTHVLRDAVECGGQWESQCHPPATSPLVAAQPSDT

[20] = target: Sigma intracellular receptor 2 (Homo sapiens, UniProt Q5BJF2); assay: Inhibition of Sigma 2 at 10 µM in the Eurofins-Panlabs radioligand binding assay (Eurofins_assay_278200); design: ligand concentration 3 nM; conditions: Rattus norvegicus; Compound concentration 10.0 uM
Sequence of Sigma intracellular receptor 2 (Q5BJF2 whole entry): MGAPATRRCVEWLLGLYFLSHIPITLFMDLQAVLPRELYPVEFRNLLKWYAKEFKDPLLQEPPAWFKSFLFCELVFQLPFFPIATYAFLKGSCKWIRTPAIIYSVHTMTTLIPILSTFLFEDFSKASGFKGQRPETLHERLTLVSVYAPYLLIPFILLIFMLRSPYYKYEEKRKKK

[21] = target: Substance-K receptor (Homo sapiens) (UniProt P21452); assay: Inhibition of Tachykinin NK2 at 10 µM in the Eurofins-Panlabs radioligand binding assay (Eurofins_assay_255600); design: ligand concentration 0.5 nM; conditions: Compound concentration 10.0 uM
Sequence of Substance-K receptor (Homo sapiens) (P21452 whole entry): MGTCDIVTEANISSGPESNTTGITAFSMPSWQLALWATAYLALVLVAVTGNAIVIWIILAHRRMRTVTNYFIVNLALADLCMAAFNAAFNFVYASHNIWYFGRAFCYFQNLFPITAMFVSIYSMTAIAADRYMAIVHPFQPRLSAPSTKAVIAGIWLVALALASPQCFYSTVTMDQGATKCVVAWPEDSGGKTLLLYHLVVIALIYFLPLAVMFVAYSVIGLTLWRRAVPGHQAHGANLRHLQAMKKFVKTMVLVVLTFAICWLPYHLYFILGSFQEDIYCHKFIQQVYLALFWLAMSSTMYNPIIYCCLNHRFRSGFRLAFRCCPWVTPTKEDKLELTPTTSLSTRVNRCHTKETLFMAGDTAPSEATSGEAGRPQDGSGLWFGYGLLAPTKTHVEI

[22] = target: T1, GABA-A receptor; anion channel (Rattus norvegicus) (UniProt O09028+P15431+P18506+P18508+P19969+P20236+P23574+P23576+P28471+P28473+P30191+P62813+P63079+P63138+Q91ZM7+Q9ES14); conditions: Compound concentration 10.0 uM
[23] = target: Beta-1 adrenergic receptor (Homo sapiens) (UniProt P08588); conditions: Compound concentration 10.0 uM
Sequence of Beta-1 adrenergic receptor (Homo sapiens) (P08588 whole entry, looked up): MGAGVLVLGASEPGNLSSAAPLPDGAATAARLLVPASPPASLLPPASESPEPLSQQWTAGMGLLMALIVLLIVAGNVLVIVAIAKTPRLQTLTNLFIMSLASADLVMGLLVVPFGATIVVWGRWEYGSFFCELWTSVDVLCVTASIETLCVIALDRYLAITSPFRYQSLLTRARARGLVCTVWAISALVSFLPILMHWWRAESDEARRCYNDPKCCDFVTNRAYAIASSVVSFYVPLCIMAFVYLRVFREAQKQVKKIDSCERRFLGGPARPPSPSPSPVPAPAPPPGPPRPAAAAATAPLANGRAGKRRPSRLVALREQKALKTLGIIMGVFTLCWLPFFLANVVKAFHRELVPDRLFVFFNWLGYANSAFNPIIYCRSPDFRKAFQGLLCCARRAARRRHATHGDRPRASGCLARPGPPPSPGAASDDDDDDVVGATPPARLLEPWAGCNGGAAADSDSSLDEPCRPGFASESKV

[24] = target: B2 bradykinin receptor (Homo sapiens) (UniProt P30411); conditions: Compound concentration 10.0 uM
Sequence of B2 bradykinin receptor (Homo sapiens) (P30411 whole entry): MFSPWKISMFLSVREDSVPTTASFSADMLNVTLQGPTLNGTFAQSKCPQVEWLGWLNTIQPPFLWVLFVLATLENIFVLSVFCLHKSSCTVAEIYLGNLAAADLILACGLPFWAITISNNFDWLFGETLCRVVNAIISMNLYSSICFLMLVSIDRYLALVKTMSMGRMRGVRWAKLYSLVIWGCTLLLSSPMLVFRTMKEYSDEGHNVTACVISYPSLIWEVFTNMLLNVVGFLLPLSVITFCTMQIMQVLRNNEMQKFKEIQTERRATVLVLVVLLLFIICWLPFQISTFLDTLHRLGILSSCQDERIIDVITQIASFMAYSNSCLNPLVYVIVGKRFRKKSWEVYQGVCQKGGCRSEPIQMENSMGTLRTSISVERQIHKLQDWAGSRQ

[25] = target: T1, GABA-A receptor; anion channel (Rattus norvegicus); conditions: Compound concentration 10.0 uM; remark: listed apart in the source
[26] = target: Acetylcholinesterase (Homo sapiens) (UniProt P22303); conditions: Compound concentration 10.0 uM
[27] = target: T2, Alpha-2B adrenergic receptor (Homo sapiens) (UniProt P18089); conditions: Compound concentration 10.0 uM
T2 sequence (whole entry): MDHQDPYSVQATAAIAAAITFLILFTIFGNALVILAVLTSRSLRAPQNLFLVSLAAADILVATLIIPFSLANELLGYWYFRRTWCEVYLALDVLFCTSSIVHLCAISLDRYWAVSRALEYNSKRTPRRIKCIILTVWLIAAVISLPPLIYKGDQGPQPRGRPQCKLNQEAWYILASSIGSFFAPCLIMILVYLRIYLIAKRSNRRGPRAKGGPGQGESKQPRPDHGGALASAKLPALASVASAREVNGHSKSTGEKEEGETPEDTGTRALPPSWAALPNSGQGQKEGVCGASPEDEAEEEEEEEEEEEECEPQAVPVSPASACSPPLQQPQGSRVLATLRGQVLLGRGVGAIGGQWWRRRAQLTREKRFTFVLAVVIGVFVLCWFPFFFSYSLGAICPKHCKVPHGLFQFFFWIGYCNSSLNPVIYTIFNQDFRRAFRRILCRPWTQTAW

[28] = target: Beta-3 adrenergic receptor (Homo sapiens) (UniProt P13945); conditions: Compound concentration 10.0 uM
[29] = tested on: Progesterone receptor (Bos taurus); assay: Progesterone Eurofins-Panlabs radioligand binding assay; conditions: Compound concentration 10.0 uM

Sequence of D(2) dopamine receptor (Homo sapiens) (P14416 whole entry): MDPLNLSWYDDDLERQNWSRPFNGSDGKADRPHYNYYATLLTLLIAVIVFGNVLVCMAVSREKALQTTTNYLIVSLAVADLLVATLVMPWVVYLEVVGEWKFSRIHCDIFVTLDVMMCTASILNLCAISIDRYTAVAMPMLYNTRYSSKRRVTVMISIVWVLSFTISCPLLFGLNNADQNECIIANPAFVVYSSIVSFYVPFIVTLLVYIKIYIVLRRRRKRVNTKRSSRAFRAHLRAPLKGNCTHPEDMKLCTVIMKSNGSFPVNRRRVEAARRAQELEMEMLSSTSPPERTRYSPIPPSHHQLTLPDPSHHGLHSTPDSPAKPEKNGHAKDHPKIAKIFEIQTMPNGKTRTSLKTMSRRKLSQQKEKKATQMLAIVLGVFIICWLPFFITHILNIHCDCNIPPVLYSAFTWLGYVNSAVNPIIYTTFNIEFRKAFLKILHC

## O=C(NCc1ncc(C(F)(F)F)cc1Cl)c1ccc2c(c1)C1(CCS(=O)(=O)CC1)[C@@H](C1CC1)N2S(=O)(=O)c1ccc(F)cc1 [BAY-786]
[1]
  inhibition: -8.4%

## O=C(NCc1ncc(C(F)(F)F)cc1Cl)c1ccc2c(c1)C1(CCS(=O)(=O)CC1)[C@H](C1CC1)N2S(=O)(=O)c1ccc(F)cc1 [BAY-784]
[2]
  inhibition: 1%
[3]
  inhibition: 10%
[4]
  inhibition: 17%
[5]
  inhibition: 2%
[6]
  inhibition: 6%
[7]
  inhibition: -2%
[8]
  inhibition at 10 µM: 36% (not active)
[9]
  inhibition at 10 µM: 4% (not active)
[10]
  inhibition: 12%
[11]
  inhibition: 4%
[12]
  inhibition: -8%
[13]
  inhibition: 6%
[14]
  inhibition: 5%
[15]
  inhibition: 0%
[16]
  inhibition: 22%
[17]
  inhibition: -1%
[18]
  inhibition: -1%
[19]
  inhibition: 22%
[20]
  inhibition: 20%
[21]
  inhibition: 7%
[22]
  inhibition: -9.68%
[23]
  inhibition: 7%
[24]
  inhibition: 9%
[25]
  inhibition: -1%
[26]
  inhibition: 56%
[27]
  inhibition: 4%
[28]
  inhibition: 0%
[29]
  inhibition: 0%
